# Biological target: human DGAT2 (hDGAT2) (Homo sapiens (Human), UniProt Q96PD7)
# Assay: DGAT2 enzymatic activity assay (triolein formation, LC/MS/MS)
# Format: biochemical
# Settings: Sf-9 membrane prep expressing hDGAT2; 25 μM diolein, 10 μM oleoyl-CoA; triolein by LC/MS/MS
# In short: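 Membranes from Sf-9 cells infected with untagged baculovirus hDGAT2 were incubated at rt in 100 mM Tris.Cl pH 7.0, 20 mM MgCl2, 5% ethanol with 25 μM diolein and 10 μM oleoyl-CoA (10 ng/μL membrane). Triolein was quantified by LC/MS/MS against internal standard; IC50 by 4-parameter sigmoidal fit.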
# Sequence of human DGAT2 (hDGAT2) (Q96PD7 whole entry): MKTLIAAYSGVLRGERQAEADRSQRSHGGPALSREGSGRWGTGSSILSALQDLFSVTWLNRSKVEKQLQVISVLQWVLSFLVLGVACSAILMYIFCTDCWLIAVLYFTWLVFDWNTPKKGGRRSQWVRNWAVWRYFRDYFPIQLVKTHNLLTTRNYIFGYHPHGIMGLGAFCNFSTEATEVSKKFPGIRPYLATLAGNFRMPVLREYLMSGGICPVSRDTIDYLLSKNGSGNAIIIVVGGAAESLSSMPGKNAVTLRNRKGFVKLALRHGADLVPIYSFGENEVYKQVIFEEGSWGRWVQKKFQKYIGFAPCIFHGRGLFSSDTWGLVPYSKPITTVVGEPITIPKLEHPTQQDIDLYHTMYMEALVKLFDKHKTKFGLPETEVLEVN
row,SMILES,IC50
1,"CC1(NC(=O)c2ccc3c(-c4cccc(OC(F)F)c4)cn(-c4ncc(F)cn4)c3c2)CCS(=O)(=O)C1 (single isomer, unassigned; enantiomer b) [Example 18-B, 3-(3-(difluoromethoxy)phenyl)-1-(5-fluoropyrimidin-2-yl)-N-(3-methyl-1,1-dioxidotetrahydrothiophen-3-yl)-1H-indole-6-carboxamide (enantiomer B)]",0.91 nM
2,"O=C(NC1CCS(=O)(=O)C1)c1ccc2c(-c3c(F)cccc3Cl)cn(-c3ccc(F)cc3)c2c1 (racemic) [Example 49, 3-(2-chloro-6-fluorophenyl)-N-(1,1-dioxidotetrahydrothiophen-3-yl)-1-(4-fluorophenyl)-1H-indole-6-carboxamide (racemic)]",155 nM
3,"O=C(N[C@H](CO)c1ccc(C(F)(F)F)nc1)c1ccc2c(-c3ccccc3Cl)cn(-c3ccc(F)cc3)c2c1 [Example 5, (S)-3-(2-chlorophenyl)-1-(4-fluorophenyl)-N-(2-hydroxy-1-(6-(trifluoromethyl)pyridin-3-yl)ethyl)-1H-indole-6-carboxamide]",190 nM

# The remaining compounds from weak to strong by IC50, led by results:
row,IC50,SMILES
1,223 nM,"COc1ccccc1-c1cn(-c2ccc(F)cc2)c2cc(C(=O)NC3CCS(=O)(=O)C3)ccc12 (racemic) [Example 29, N-(1,1-dioxidotetrahydrothiophen-3-yl)-1-(4-fluorophenyl)-3-(2-methoxyphenyl)-1H-indole-6-carboxamide (racemic)]"
2,1.1 nM,"O=C(NC1CCS(=O)(=O)C1)c1ccc2c(-c3cccc(OC(F)F)c3)cn(-c3ccc(F)cc3)c2c1 (racemic) [Example 39, 3-[3-(difluoromethoxy)phenyl]-N-(1,1-dioxidotetrahydrothiophen-3-yl)-1-(4-fluorophenyl)-1H-indole-6-carboxamide (racemic)]"

# Source: patent US10947222B2, “Indole derivatives useful as inhibitors of diacylglyceride O-acyltransferase 2” (Merck Sharp & Dohme Corp., priority 2016, dated 2021)
